Data from patent US9120768B2, “Compositions and methods for treatment of cystic fibrosis and diseases associated with aberrant protein cellular processing” (The Hospital for Sick Children, priority 2010, dated 2015).

How the values were obtained:
delF508-CFTR [1] = target: T1, delF508-CFTR (Homo sapiens, UniProt P13569, DEL508-508); assay: Cellomics YFP quenching assay; format: cell-based; set-up: expressed in transfected cells; host or cells: HEK293 MSR GripTite (293MSR-GT) cells, also stably expressing eYFP(H148Q/I152L); conditions: 10 μM, 48 hrs, 37° C., 293MSR-GT cells, stimulated with FIG; FIG. 1
T1 sequence (P13569 with tags, fused parts or gaps DEL508-508): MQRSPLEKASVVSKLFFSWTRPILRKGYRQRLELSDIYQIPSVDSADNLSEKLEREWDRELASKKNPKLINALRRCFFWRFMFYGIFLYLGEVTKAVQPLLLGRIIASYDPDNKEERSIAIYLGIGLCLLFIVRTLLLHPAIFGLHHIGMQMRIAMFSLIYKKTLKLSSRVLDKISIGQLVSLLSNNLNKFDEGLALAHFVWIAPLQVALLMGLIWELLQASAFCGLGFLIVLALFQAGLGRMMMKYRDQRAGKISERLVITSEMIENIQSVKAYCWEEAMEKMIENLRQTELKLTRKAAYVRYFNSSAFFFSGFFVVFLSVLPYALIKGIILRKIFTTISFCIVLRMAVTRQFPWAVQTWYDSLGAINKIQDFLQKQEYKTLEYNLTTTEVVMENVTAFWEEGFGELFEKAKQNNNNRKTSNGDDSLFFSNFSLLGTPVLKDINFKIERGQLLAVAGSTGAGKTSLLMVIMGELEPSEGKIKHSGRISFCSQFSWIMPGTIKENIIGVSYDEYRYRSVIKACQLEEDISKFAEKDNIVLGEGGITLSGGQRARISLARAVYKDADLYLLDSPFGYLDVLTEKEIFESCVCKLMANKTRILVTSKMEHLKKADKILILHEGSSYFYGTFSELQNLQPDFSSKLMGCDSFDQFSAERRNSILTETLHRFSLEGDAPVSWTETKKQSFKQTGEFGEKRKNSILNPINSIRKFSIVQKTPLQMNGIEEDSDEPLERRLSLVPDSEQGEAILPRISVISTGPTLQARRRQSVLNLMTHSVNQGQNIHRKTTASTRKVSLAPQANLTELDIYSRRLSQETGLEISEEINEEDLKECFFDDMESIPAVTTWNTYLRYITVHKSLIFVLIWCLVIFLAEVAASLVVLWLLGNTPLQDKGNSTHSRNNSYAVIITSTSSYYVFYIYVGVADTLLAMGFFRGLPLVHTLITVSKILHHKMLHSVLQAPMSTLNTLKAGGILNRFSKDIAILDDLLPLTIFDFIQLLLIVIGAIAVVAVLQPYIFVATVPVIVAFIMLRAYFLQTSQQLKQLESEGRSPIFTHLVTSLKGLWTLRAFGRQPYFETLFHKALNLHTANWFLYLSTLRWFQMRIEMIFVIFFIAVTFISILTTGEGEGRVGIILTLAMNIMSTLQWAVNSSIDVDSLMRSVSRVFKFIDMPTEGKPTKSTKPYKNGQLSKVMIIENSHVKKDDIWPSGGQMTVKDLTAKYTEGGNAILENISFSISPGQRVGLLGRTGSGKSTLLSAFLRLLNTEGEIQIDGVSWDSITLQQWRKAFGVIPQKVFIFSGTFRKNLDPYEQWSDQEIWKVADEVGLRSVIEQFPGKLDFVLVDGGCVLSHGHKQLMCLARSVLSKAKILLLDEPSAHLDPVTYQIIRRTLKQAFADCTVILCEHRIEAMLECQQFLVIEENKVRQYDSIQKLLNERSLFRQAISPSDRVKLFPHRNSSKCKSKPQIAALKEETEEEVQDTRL

ERK2 = ERK2 (Homo sapiens, UniProt P28482); conditions: cited from earlier work
Sequence of ERK2 (P28482 whole entry, species assumed): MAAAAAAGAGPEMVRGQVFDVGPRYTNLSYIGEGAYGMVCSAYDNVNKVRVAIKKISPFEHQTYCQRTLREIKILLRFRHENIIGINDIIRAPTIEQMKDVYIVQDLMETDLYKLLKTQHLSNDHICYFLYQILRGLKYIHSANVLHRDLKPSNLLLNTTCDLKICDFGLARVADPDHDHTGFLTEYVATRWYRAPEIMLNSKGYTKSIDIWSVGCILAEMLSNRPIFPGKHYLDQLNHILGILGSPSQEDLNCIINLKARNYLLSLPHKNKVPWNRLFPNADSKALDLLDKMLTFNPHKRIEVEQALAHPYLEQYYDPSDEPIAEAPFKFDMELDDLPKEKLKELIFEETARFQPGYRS

inflammation = conditions: animal model, topical application; cited from earlier work
delF508-CFTR [2] = target: T1, delF508-CFTR; assay: Immunoblotting for delF508-CFTR maturation (band C); format: cell-based; set-up: expressed in transfected cells; host or cells: HEK293 MSR GripTite (293MSR-GT) cells, also stably expressing eYFP(H148Q/I152L); conditions: 10 μM, 48 hrs, 37° C., 293MSR-GT cells, anti-CFTR immunoblot; FIG. 2
TAK1 = TAK1 (Homo sapiens, UniProt O43318); conditions: competitive with ATP; cited from earlier work
Sequence of TAK1 (O43318 whole entry): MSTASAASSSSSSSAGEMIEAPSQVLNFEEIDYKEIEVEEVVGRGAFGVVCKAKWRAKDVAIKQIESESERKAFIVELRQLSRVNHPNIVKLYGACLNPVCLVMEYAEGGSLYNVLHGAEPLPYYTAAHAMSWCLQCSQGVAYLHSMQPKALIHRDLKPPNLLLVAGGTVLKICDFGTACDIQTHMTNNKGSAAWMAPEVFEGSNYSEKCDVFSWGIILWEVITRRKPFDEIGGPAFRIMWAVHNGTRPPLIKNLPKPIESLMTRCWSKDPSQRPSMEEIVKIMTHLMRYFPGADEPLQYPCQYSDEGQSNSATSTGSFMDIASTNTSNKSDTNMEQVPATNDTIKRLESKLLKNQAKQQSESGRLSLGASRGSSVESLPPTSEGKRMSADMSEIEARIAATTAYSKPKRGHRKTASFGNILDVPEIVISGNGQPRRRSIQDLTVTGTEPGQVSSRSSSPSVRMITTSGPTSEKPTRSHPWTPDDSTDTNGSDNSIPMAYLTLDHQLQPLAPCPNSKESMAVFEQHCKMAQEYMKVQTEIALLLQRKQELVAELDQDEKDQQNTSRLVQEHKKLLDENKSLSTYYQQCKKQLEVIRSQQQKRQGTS
Sequence of TAK1 (Q15750 whole entry partner): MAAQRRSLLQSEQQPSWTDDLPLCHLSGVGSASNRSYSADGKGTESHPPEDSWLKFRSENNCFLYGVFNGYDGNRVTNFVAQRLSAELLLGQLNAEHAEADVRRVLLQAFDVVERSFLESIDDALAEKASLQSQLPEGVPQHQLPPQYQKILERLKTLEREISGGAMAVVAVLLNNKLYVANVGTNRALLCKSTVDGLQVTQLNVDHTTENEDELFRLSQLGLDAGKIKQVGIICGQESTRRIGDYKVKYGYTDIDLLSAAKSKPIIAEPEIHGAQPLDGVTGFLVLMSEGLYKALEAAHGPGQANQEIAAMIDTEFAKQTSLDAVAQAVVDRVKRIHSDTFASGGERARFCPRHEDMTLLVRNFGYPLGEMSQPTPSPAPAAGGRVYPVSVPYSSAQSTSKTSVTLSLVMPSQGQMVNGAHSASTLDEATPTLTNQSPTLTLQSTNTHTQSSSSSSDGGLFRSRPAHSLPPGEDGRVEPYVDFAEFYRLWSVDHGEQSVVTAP

delF508-CFTR [3] = target: T1, delF508-CFTR; assay: Short circuit current (Ussing chamber) in primary human bronchial epithelial cells; format: cell-based; set-up: primary cultures of human bronchial epithelia (HBE) obtained from transplant patients homozygous for the delF508 mutation; host or cells: primary human bronchial epithelial (HBE) cells from delF508/delF508 lung transplant patients; conditions: 10 μM, 48 hrs, HBE cells of delF508/delF508 patients, versus vehicle alone; FIGS. 5-7
293MSR-GT cells = assay: Sensitivity of 293MSR-GT cells toward compound; conditions: compound could not be tested by YFP quenching or immunoblotting

delF508-CFTR chloride channel activity (short-circuit current) (delF508-CFTR [3])	sensitivity of 293MSR-GT cells toward compound (293MSR-GT cells)	Compound	delF508-CFTR activity (fluorescence quenching due to Cl-/I- exchange) (delF508-CFTR [1])	ERK2 enzyme activity inhibition (ERK2)	prevention of inflammation (inflammation)	appearance of mature delF508-CFTR protein (band C) (delF508-CFTR [2])	TAK1 inhibition (TAK1)
enhanced activity of the mutant CFTR	–	COc1cc(O)c2c(c1)/C=C/C[C@H](O)[C@H](O)C(=O)/C=C\C[C@H](C)OC2=O [(5Z)-7-oxozeaenol, (3S,5Z,8S,9S,11E)-3,4,9,10-tetrahydro-8,9,16-trihydroxy-14-methoxy-3-methyl-1H-2-benzoxacyclotetradecin-1,7(8H)-dione]	restores delF508-CFTR activity to a level that is similar to that obtained with corr-4-a	inhibit ERK2 enzyme activity	effectively prevent inflammation in an animal model	led to the appearance of the mature band C, similar to that seen with corr-4-a	irreversibly inhibits TAK1
enhanced activity of the mutant CFTR	–	Cc1c[nH]c(/C=C2\C(=O)Nc3ccccc32)c1CCC(=O)O [SU5402, 3-[4-methyl-2-[(Z)-(2-oxo-1H-indol-3-ylidene)methyl]-1H-pyrrol-3-yl]propanoic acid]	restores delF508-CFTR activity to a level that is similar to that obtained with corr-4-a	–	–	led to the appearance of the mature band C, similar to that seen with corr-4-a	–
enhanced activity of the mutant CFTR	increased sensitivity	Cc1[nH]c(/C=C2\C(=O)Nc3ccccc32)c(C)c1CCC(=O)O [SU6668, 3-[2,4-dimethyl-5-[(Z)-(2-oxo-1H-indol-3-ylidene)methyl]-1H-pyrrol-3-yl]propanoic acid]	–	–	–	–	–
